Here are results for one compound from patent US11931351B2, “(S)-3-[1-methylpyrrolidin-2-yl]pyridine, analogues thereof, precursors thereof, or its derivatives, for the use as a pharmaceutical in form of a parenteral administration and a process for the preparation of an injectable substance” (priority 2019, dated 2024).

Values after ≈ are worked out from the molar mass of the structure shown. Where only a bound is given, the exact number is not on record here.

One series has as its system H1N1 virus. To be noted: 0,002 mg/kg each 24 hours; 24 hours after treatment; versus control group.
The conditions of series [1]: after 72 h treatment, n=10 per group; compared to antimicrobians/antimycotics (group B) and no treatment (group C).
Series [2] concerns human PBLs (leukocytes of peripheral blood). Conditions: MTT, 48 hours.
Protocol: (§1) Thereby, cell viability was determined on the basis of the mitochondria-dependent reduction of MTT (3-[4,5-dimethyltiazol 2yl]-2,5-diphenyltetrazolium bromide) to formazan. […] Next cells were treated with 20 μl of MTT. After 3 hours of incubation at 37° C., the formazan blue formed in the cells was dissolved in 100 μl of SDS (sodium dodecylsulfate) for 3 hours in 37° C. The optical density was measured at 570 nm.
(§2) After the cytotoxicity tests LC50 (LC50-lethal concentration, 50%-dose required to kill half of the cells after a specified test duration) were estimated for each cell lines and PBLs (leukocytes of peripheral blood). Additionally for PBLs LC10 and LC5 were calculated.
(§3) On the basis of the results of MTT assay for human leukocytes the LC50, LC10 and LC5 were evaluated.
In series [3] the test system is WI-38 cells. To be noted: WI-38, 96 hours incubation, MTT.
Series [4] concerns A549 cells. Conditions: A549, 96 hours incubation, MTT.
The subject of series [5] is HS-683 cells. To be noted: HS-683, 96 hours incubation, MTT.
A further series concerns IL-6 production. To be noted: human PBLs; 1 mg/ml, 500 μg/ml, 300 μg/ml.
Series [6] deals with WI-38 cells. The series is described as follows: cells. To be noted: Homo sapiens, WI-38, 96 h, read-out: concentration that inhibits 50% of the proliferation.
The test system of series [7] is A549 cells. The series is described as follows: cells. To be noted: Homo sapiens, A549, 96 h, read-out: concentration that inhibits 50% of the proliferation.
Series [8] deals with HS-683 cells. Nature of the series: cells. To be noted: Homo sapiens, Hs 683, 96 h, read-out: concentration that inhibits 50% of the proliferation.
For a further series, the system named is WI-38, A549 and HS 683. The series is described as follows: cells. Conditions: Homo sapiens, read-out: doses that inhibit 50% of cell proliferation (summary).
Series [9] can be described thus: in vitro. Conditions: human, WI-38 cells (normal embryonic lung diploid cell line).
Protocol: (§4) In a further example cytotoxicity tests were performed with three different cell lines (FIG. 2a, 2b, 2c): • WI-38 (human diploid cell line from normal embryonic lung tissue) • A549 (human lung adenocarcinoma epithelial cell line) and • HS683 (human neuronal glioma cell line).
as §1
(§5) After the cytotoxicity tests LC50 (LC50-lethal concentration, 50%-dose required to kill half of the cells after a specified test duration) were estimated for each cell lines and PBLs (leukocytes of peripheral blood).
A short description of series [10]: in vitro. Conditions: human, A549 cells (lung adenocarcinoma epithelial cell line).
Protocol: as §4, §1, §5
Series [11] in a line: in vitro. Conditions: human, HS683 cells (neuronal glioma cell line).
Protocol: as §4, §1, §5
A short description of series [12]: in vitro. To be noted: human, peripheral blood leukocytes (PBLs).
Protocol: as §1, §2, §3
The conditions of series [13]: background statement; cited from earlier work.
The conditions of series [14]: background statement; cited from earlier work. The source holds these as a separate data set.

Consider `CN1CCC[C@H]1c1cccnc1` [(S)-3-[1-Methylpyrrolidin-2-yl]pyridine], for which, in the series on H1N1 virus, the “egg production of H1N1 infected chicken” value is recorded as “began to lay off eggs”. Besides, the “healing effect on ulcer” value in series [1] is on record as “increased healing effect”. In series [2], this compound gave an LC5 of 0.5 mg/mL. The LC10 in series [2] came out at 1000 µg/mL (≈ 6.16 mM). In addition, the entries for the “concentration that inhibits 99% of the proliferation” value in the series on WI-38 cells [3], in the series on A549 cells [4] and with HS-683 cells [5] were 4.5 mg/mL, 5.5 mg/mL and 5.5 mg/mL, respectively. Besides, the “effect on IL-6 production” value with IL-6 production is “no effect”. The IC50 with WI-38 cells [6] was 1000 µg/mL (≈ 6.16 mM); with A549 cells [7] it was 2000 µg/mL (≈ 12.3 mM); with HS-683 cells [8], 2900 µg/mL (≈ 17.9 mM); in the series with WI-38, A549 and HS 683 it was above 1000 µg/mL. Further, the CC50 at 48 h in the series “in vitro [9]” is 3000 µg/mL (≈ 18.5 mM); in “in vitro [10]”, 4500 µg/mL (≈ 27.7 mM); in “in vitro [11]” it was 3500 µg/mL (≈ 21.6 mM); in the series “in vitro [12]”, 7000 µg/mL (≈ 43.1 mM). Moreover, in [13], the “half-life in the body” value was “approximately two”. In addition, the miscibility with water entry in [14] is recorded as “miscible with water”. In addition, in [14], the “solubility in alcohol, ether or light petroleum” value is “readily soluble”.
